Experimental data from PMC9530242, “Cryo-EM structure-based selection of computed ligand poses enables design of MTA-synergic PRMT5 inhibitors of better potency” (Communications Biology, 2022).
Several values for one entry are separate records, joined by “and”; a condition that tells them apart may be missing. Equal values may be shown once. Read-outs that look alike come from different tables or passages of the source.

Assays:
PRMT5:MEP50 [1] = biological target: T1, PRMT5:MEP50 (Homo sapiens, UniProt O14744); assay: MTase-Glo methyltransferase enzymatic inhibition assay (methylation of H4 peptide); assay type: biochemical; conditions: 100 nM PRMT5:MEP50, 10 µM SAM, 2 µM histone H4 peptide (1-21), n = 3
T1 construct: full-length human PRMT5 (residues 1–637, NP_006100); FLAG; made in house; host or cells: Sf9 insect cells (Bac-to-Bac baculovirus)
T1 sequence (O14744 whole entry, the tested form may be a part): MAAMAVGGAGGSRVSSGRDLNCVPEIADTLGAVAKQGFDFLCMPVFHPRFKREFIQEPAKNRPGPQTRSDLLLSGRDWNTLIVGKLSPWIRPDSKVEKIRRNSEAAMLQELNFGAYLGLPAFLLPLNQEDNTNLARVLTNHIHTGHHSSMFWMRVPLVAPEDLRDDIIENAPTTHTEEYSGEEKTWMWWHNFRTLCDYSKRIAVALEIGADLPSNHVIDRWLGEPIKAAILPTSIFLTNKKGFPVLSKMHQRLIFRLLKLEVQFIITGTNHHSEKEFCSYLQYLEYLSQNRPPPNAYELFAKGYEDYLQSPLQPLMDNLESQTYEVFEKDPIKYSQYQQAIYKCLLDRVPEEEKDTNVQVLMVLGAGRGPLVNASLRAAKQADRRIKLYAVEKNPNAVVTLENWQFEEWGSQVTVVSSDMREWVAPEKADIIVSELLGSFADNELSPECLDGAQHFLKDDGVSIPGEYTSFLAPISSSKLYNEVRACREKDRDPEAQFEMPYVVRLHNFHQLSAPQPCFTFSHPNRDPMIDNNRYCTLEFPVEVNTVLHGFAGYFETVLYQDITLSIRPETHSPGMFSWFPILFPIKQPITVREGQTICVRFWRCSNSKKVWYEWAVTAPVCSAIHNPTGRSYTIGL
T1 sequence (Q9BQA1 2-342 partner limits assumed): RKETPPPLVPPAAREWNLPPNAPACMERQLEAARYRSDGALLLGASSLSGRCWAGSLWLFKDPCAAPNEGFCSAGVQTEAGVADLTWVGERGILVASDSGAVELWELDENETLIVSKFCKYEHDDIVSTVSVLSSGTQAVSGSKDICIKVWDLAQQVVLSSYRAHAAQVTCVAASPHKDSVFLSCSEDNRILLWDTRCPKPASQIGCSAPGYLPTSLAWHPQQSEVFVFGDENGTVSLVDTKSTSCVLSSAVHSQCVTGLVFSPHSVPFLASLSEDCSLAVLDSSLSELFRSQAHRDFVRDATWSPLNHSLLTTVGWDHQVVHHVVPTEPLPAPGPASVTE
Protocol: Recombinant PRMT5:MEP50 was purified to biochemical homogeneity from sf9 cells (Supplementary Fig. 1). Inhibition of PRMT5 activity (methylation of H4 peptide) was monitored by measuring luminescence from a MTase-Glow detection reagent.
PRMT5:MEP50 protein complex was prepared as described by Antonysamy, S., et al.[39]. Briefly, full-length human PRMT5 (residues 1–637, NP_006100) and human MEP50 (residues 2–342, NP_077007) were co-expressed in Sf9 cells using a Bac-to-Bac expression system (Invitrogen). The cells were harvested and lysed. […]
11-2 F was serially diluted by 5-fold from 500 µM to 6.4 nM in DMSO then added into reaction buffer (30 mM Tris-HCl at pH 7.4, 500 mM NaCl, 2 mM MgCl2, 2 mM TCEP, 0.1% (wt/vol) BSA and 0.01% (vol/vol) Tween-20) with final DMSO concentration at 5% (vol/vol). […] After shaking for 2 min and incubation at room temperature for 30 min, 20 µl room temperature MTase-Glo Detection Solution was added and mixed well before incubation for another 30 min and luminescence recording. Luminescence was measured in a Synergy Neo2 HTS multimode microplate reader (BioTek). […] Data are analyzed in GraphPad Prism 8. For inhibitor studies, IC50 was determined by nonlinear regression (curve fitting) using the equation for the sigmoidal dose response (variable slope).

PRMT5:MEP50 [2] = biological target: T1, PRMT5:MEP50; assay: Surface plasmon resonance (SPR) binding study
Protocol: PRMT5:MEP50 protein complex was prepared as described by Antonysamy, S., et al.[39]. Briefly, full-length human PRMT5 (residues 1–637, NP_006100) and human MEP50 (residues 2–342, NP_077007) were co-expressed in Sf9 cells using a Bac-to-Bac expression system (Invitrogen). The cells were harvested and lysed. After removal of cell debris, supernatants were collected for FLAG-affinity chromatography (Sigma; A2220) and fractionated by size exclusion chromatography in a 10/300 Superose 6 column (GE Life Sciences). The purified PRMT5:MEP50 complex was characterized by SDS-PAGE and sedimentation velocity analytical ultracentrifugation (SV-AUC) using a ProteomeLab™XL-I system (Beckman Coulter; Supplementary Fig. 1). Protein samples were concentrated to 12 mg/mL in a buffer containing 10 mM HEPES at pH 7.5, 150 mM NaCl, 10% (vol/vol) glycerol and 2.0 mM DTT and were stored at −80 °C until the time of use.
Binding affinity measurements were conducted in a Reichert2SPR instrument (Ametek) at 25 °C. PRMT5:MEP50 proteins were directly immobilized onto a 500,000 Da carboxymethyl dextran sensor chip at pH 5.5 using a standard amine-coupling approach. The small molecule analyte (11-2 F as an example) was injected at a flow rate of 30 μL/min of different concentrations in the running buffer (10 mM HEPES pH 7.4, 150 mM NaCl, 3.0 mM EDTA, 0.005% v/v Tween-20, and 5% DMSO). The association and dissociation times were set to be 1 min. […] The dissociation time for 11-2 F in MTA-containing running buffer was elongated to be 3 min to achieve complete dissociation. Sensorogram data were processed using the TraceDrawer software package to calculate the equilibrium dissociation constant KD, the association rate constant kon and the dissociation rate constant koff.

[3] = test system: SDMA from PRMT5 activity in MDA-MB-231 cells; assay: Cell-based assay of SDMA by western blotting (MTA-synergy in cultured cells); conditions: Homo sapiens, MDA-MB-231, 96 h, read-out: IC50, inhibition of SDMA production
Text: The above analysis highlighted three principles that should be considered to enhance PRMT5 inhibition by 11-2F analogs. (1) It is important to retain the quinoline ring backbone to maintain the positive cooperativity with MTA. (2) The pi-stacking interactions of Trp579 and Phe327 with the quinoline ring may be enhanced to keep the inhibitor properly oriented, which could be achieved by introducing small groups (-F, or -CH3, or -NH3^+) to the ring. (3) The cyclo-alkylated indole ring of 11-2F is relatively flexible and may be stabilized by introducing H-bonds or electrostatic interactions with the binding pocket, especially with the residues on the flexible loop. […] Three 11-2F analogs predicted to have higher potency introduce more interactions with the binding pockets (Table 2; Supplementary Figs. 6–8, and Supplementary Tables 5–7). […] In the binding pocket, the 2,4-di-NH2-quinazoline of 11-9 F forms H-bonds with E444, E435, and S439, and its aromatic ring is sandwiched between the sidechains of Phe327 and Trp579. […]
MDA-MB-231 cells were seeded at 1.0 × 10^6 cells/dish and allowed to adhere overnight. […] The protein concentrations were determined using the BCA Protein Assay kit (Pierce #23227). […] After three washes with the TBST buffer, the membrane was analyzed using ECL Western blotting detection reagents (Pierce #34096) and imaged in a ChemiDoc MP imaging system (Bio-Rad). […]

| Compound | IC50 (PRMT5:MEP50 [1]; read-out: IC50, inhibition of PRMT5:MEP50 enzyme activity) | IC50 (PRMT5:MEP50 [1]; read-out: IC50, inhibition of PRMT5 enzyme activity) | apparent positive coupling coefficient between 11-2F and MTA (PRMT5:MEP50 [2]; KD without MTA vs with 25 μM MTA) | Kd (PRMT5:MEP50 [2]; PRMT5:MEP50 saturated with 25 μM MTA) | Kd (PRMT5:MEP50 [2]; PRMT5:MEP50 saturated with 25 μM SAH) | Kd (PRMT5:MEP50 [2]; PRMT5:MEP50 saturated with 25 μM SAM) | koff (PRMT5:MEP50 [2]; saturated with 25 μM MTA) | kon (PRMT5:MEP50 [2]; saturated with 25 μM MTA) | koff (PRMT5:MEP50 [2]; saturated with 25 μM SAH) | kon (PRMT5:MEP50 [2]; saturated with 25 μM SAH) | koff (PRMT5:MEP50 [2]; saturated with 25 μM SAM) | kon (PRMT5:MEP50 [2]; saturated with 25 μM SAM) | Kd (PRMT5:MEP50 [2]; without MTA (no cofactor)) | koff (PRMT5:MEP50 [2]; without MTA (no cofactor)) | kon (PRMT5:MEP50 [2]; without MTA (no cofactor)) | IC50 ([3]; 0 μM additional MTA (black trace)) | IC50 ([3]; 5.0 μM MTA (red trace)) |
| --- | --- | --- | --- | --- | --- | --- | --- | --- | --- | --- | --- | --- | --- | --- | --- | --- | --- |
| Nc1ccc2ccc(CNC(=O)c3ccc4c(c3)c3c(n4CCO)CCCC3)cc2n1 [11-2F, N-[(2′-aminoquinoline)-7′-methyl]-[9-(2-hydroxyethyl)-5,6,7,8-tetrahydro-carbazole]-3-carboxamide] | ~730 nM | 730 ± 200 nM | ~ 166 | ~82 nM and 82.1 nM | 1600 nM and 1630 nM | 380 nM and 375 nM | 0.0202 s⁻¹ | 246000 M⁻¹ s⁻¹ | 0.112 s⁻¹ | 75700 M⁻¹ s⁻¹ | 0.019 s⁻¹ | 50700 M⁻¹ s⁻¹ | ~13600 nM | 0.0844 s⁻¹ | 6190 M⁻¹ s⁻¹ |  |  |
| CCn1c2c(c3cc(C(=O)NCc4ccc5c(N)nc(N)nc5c4)ccc31)CCCC2 [11-9F, N-[(2′,4′-diaminoquinazoline)-7′-methyl]-[9-ethyl-5,6,7,8-tetrahydro-carbazole]-3-carboxamide] |  |  |  |  |  |  |  |  |  |  |  |  |  |  |  | 32400 nM | 2400 nM |
